Source: patent US10039753B2, “Imidazo[4,5-c]quinoline and imidazo[4,5-c][1,5]naphthyridine derivatives as LRRK2 inhibitors” (Pfizer Inc., priority 2015, dated 2018)
Structures can show the parent of a compound that is named as a salt.

Key:
[1] = molecular target: T1, GST-tagged truncated LRRK2 (Homo sapiens, UniProt Q5S007); assay: LRRK2 Assay, Format 2 (Lantha Screen), WT; assay type: biochemical; details: geometric mean of 2-4 determinations unless otherwise indicated (a: >=5; b: single determination)
T1 construct: GST-tagged truncated LRRK2 from Invitrogen (Cat # PV4874); GST; purchased Invitrogen PV4874
T1 sequence (Q5S007 970-2527 limits assumed): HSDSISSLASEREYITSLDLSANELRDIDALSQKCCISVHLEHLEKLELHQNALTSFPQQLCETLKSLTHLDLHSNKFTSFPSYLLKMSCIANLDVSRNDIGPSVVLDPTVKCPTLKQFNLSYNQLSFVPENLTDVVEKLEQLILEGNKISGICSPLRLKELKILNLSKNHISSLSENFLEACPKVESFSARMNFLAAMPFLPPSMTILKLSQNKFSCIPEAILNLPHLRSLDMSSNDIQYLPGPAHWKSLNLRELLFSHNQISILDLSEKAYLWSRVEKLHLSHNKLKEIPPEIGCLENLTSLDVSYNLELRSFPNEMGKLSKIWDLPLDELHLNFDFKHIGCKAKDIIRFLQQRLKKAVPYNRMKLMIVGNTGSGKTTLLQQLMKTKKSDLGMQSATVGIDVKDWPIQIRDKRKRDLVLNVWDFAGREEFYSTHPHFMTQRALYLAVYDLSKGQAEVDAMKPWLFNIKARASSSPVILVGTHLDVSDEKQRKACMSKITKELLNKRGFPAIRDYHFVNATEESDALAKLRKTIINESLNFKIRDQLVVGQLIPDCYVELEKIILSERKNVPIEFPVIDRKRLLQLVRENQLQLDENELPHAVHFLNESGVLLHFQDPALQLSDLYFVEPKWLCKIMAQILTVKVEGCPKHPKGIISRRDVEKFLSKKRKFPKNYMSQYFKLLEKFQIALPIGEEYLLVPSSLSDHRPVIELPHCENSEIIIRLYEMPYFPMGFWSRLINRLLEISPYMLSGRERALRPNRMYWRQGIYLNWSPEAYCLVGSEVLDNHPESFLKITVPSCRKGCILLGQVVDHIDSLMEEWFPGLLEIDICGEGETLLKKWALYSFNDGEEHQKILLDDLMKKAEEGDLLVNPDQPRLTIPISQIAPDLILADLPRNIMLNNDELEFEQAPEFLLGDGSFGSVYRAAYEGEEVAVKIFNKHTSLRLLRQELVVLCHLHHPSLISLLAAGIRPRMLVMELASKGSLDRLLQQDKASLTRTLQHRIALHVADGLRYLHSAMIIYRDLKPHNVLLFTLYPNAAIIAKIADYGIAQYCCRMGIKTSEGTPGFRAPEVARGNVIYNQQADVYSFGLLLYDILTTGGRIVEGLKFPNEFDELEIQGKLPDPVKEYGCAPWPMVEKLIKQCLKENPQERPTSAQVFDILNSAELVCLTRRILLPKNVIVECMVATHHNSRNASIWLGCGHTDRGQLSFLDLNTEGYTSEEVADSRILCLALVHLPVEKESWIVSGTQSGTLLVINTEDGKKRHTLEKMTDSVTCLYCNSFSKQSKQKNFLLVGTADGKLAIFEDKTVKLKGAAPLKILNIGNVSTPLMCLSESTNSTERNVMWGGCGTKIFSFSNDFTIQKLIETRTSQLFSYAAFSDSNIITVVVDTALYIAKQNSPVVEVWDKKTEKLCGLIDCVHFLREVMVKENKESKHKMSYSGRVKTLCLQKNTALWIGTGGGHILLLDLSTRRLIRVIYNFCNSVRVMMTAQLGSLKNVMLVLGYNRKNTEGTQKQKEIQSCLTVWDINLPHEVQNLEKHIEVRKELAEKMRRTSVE
Method: (§1) LRRK2 kinase activity was measured using Lantha Screen technology from Invitrogen. GST-tagged truncated LRRK2 from Invitrogen (Cat # PV4874) was incubated with a fluorescein-labeled peptide substrate based upon ezrin/radixin/moesin (ERM), also known as LRRKtide (Invitrogen cat # PR8976A), in the presence of a dose response of compound. Upon completion, the assay was stopped and detected with a terbium labeled anti-phospho-ERM antibody (Invitrogen, cat # PR8975A). […] Using Echo acoustic dispensing, 60 nL of compound was transferred to a low volume Corning 384-well assay plate. 3 μL of a working solution of substrate (200 nM LRRKtide, […]) prepared in assay buffer (50 mM HEPES, pH 7.5, 3 mM MgCl2, with 2 mM DTT and 0.01% Brij35 added fresh) was added to the 60 nL compound assay plate. The kinase reaction was started with […] of a working solution of LRRK2 enzyme at a concentration of […]. The final reaction concentrations were 100 nM LRRKtide, […], […] LRRK2 enzyme and a compound dose response with a top dose of 3 mM. The reaction was allowed to progress at room temperature for 30 minutes and then stopped with the addition of […] of detection buffer (20 mM Tris pH 7.6, 0.01% NP-40, 6 mM EDTA with 2 nM terbium labeled anti-phospho-ERM). After an incubation of 1 hour at room temperature, the plate was read on an Envision with an excitation wavelength of 340 nm and a reading emission at both 520 nm and 495 nm. The ratio of the 520 nm and 495 nm emission was used to analyze the data. Inhibition of mutant G2019S LRRK2 (Invitrogen cat # PV4881) was measured in the exact same method. All final concentrations of substrate ATP and enzyme were the same.

[2] = molecular target: mutant G2019S LRRK2 (Homo sapiens, UniProt Q5S007, G2019S); assay: LRRK2 Assay, Format 2 (Lantha Screen), G2019S mutant; assay type: biochemical; parameters: purchased Invitrogen PV4881; details: geometric mean of 2-4 determinations unless otherwise indicated (a: >=5; b: single determination); read-out: LRRK2, Format 2 G2019S IC50
Sequence of mutant G2019S LRRK2 (Q5S007 970-2527 G2019S limits assumed): as the sequence (Q5S007 970-2527 limits assumed) above, with G1050S counted along it
Method: as §1

Cc1cn(Cc2nc3cnc4ccc(Cl)cc4c3n2C2CCC2(F)F)nn1 (stereo not shown) [Example 187, 8-chloro-1-(2,2-difluorocyclobutyl)-2-[(4-methyl-1H-1,2,3-triazol-1-yl)methyl]-1H-imidazo[4,5-c]quinoline]
IC50 [1]: 28.1 nM
IC50 [2]: 33.3 nM

Cc1nn2cc(Cc3nc4cnc5ccc(C#N)cc5c4n3[C@@H]3CCO[C@H](C)C3)nc2s1 [Example 157, 2-[(2-methylimidazo[2,1-b][1,3,4]thiadiazol-6-yl)methyl]-1-[(2R,4R)-2-methyltetrahydro-2H-pyran-4-yl]-1H-imidazo[4,5-c]quinoline-8-carbonitrile, formate salt]
IC50 [1]: 3.96 nM
IC50 [2]: 3.79 nM

Cc1cnn(Cc2nc3cnc4ccc(F)cc4c3n2[C@@H]2CCO[C@H](C)C2)c1 [Example 198, 8-fluoro-2-[(4-methyl-1H-pyrazol-1-yl)methyl]-1-[(2R,4R)-2-methyltetrahydro-2H-pyran-4-yl]-1H-imidazo[4,5-c]quinoline]
IC50 [1]: 15.2 nM
IC50 [2]: 16.8 nM

Cc1cc(Cc2nc3cnc4ccc(C#N)cc4c3n2[C@@H](C)CF)no1 [Example 243, 1-[(2S)-1-fluoropropan-2-yl]-2-[(5-methyl-1,2-oxazol-3-yl)methyl]-1H-imidazo[4,5-c]quinoline-8-carbonitrile, formate salt]
IC50 [1]: 48.7 nM
IC50 [2]: 85.9 nM

CC(F)(F)Cn1c(Cc2cscn2)nc2cnc3ccc(C#N)cc3c21 [Example 224, 1-(2,2-difluoropropyl)-2-(1,3-thiazol-4-ylmethyl)-1H-imidazo[4,5-c]quinoline-8-carbonitrile]
IC50 [1]: 9.15 nM
IC50 [2]: 11.1 nM

C[C@@H]1C[C@H](n2c(C(F)(F)c3ccccn3)nc3cnc4ccc(C#N)cc4c32)CCO1 [Example 236, 2-[difluoro(pyridin-2-yl)methyl]-1-[(2R,4R)-2-methyltetrahydro-2H-pyran-4-yl]-1H-imidazo[4,5-c]quinoline-8-carbonitrile, formate salt]
IC50 [1]: 13 nM
IC50 [2]: 11.9 nM

Cc1cnc(Cc2nc3cnc4ccc(C#N)cc4c3n2[C@@H]2CCO[C@H](C)C2)s1 [Example 205, 1-[(2R,4R)-2-methyltetrahydro-2H-pyran-4-yl]-2-[(5-methyl-1,3-thiazol-2-yl)methyl]-1H-imidazo[4,5-c]quinoline-8-carbonitrile]
IC50 [1]: 6.52 nM
IC50 [2]: 6.09 nM

CCC(F)(F)Cn1c(Cn2cc(C)nn2)nc2cnc3ccc(Cl)cc3c21 [Example 186, 8-chloro-1-(2,2-difluorobutyl)-2-[(4-methyl-1H-1,2,3-triazol-1-yl)methyl]-1H-imidazo[4,5-c]quinoline]
IC50 [1]: 22.5 nM
IC50 [2]: 16.4 nM

Cc1ccc(Cc2nc3cnc4ccc(C#N)cc4c3n2[C@@H]2CCO[C@H](C)C2)nc1 [Example 232, 2-[(5-methylpyridin-2-yl)methyl]-1-[(2R,4R)-2-methyltetrahydro-2H-pyran-4-yl]-1H-imidazo[4,5-c]quinoline-8-carbonitrile]
IC50 [1]: 8.48 nM
IC50 [2]: 7.26 nM

C[C@@H]1C[C@H](n2c(Cc3cn4ccccc4n3)nc3cnc4ccc(C#N)cc4c32)CCO1 [Example 158, 2-(imidazo[1,2-a]pyridin-2-ylmethyl)-1-[(2R,4R)-2-methyltetrahydro-2H-pyran-4-yl]-1H-imidazo[4,5-c]quinoline-8-carbonitrile, formate salt]
IC50 [1]: 6.01 nM
IC50 [2]: 5.22 nM

CO[C@H]1C[C@@H](n2c(Cn3cc(C)nn3)nc3cnc4ccc(Cl)cc4c32)C1 [Example 183, 8-chloro-1-[(1s,3s)-3-methoxycyclobutyl]-2-[(4-methyl-1H-1,2,3-triazol-1-yl)methyl]-1H-imidazo[4,5-c]quinoline]
IC50 [1]: 33.8 nM
IC50 [2]: 30.8 nM

N#Cc1ccc2ncc3nc(Cn4cc(C5CC5)nn4)n([C@@H]4CC[C@H](F)C4)c3c2c1 (single isomer, unassigned; ent-1) [Example 202, 2-[(4-cyclopropyl-1H-1,2,3-triazol-1-yl)methyl]-1-(cis-3-fluorocyclopentyl)-1H-imidazo[4,5-c]quinoline-8-carbonitrile, ENT-1]
IC50 [1]: 15.5 nM
IC50 [2]: 20.4 nM

C[C@@H]1C[C@H](n2c(Cc3cn(C)cn3)nc3cnc4ccc(Cl)cc4c32)CCO1 [Example 131, 8-chloro-2-[(1-methyl-1H-imidazol-4-yl)methyl]-1-[(2R,4R)-2-methyltetrahydro-2H-pyran-4-yl]-1H-imidazo[4,5-c]quinoline]
IC50 [1]: 7.23 nM
IC50 [2]: 7.86 nM

Cc1cn(Cc2nc3cnc4ccc(C#N)cc4c3n2C2CCCC2(F)F)nn1 (single isomer, unassigned; ent-1) [Example 196, 1-(2,2-difluorocyclopentyl)-2-[(4-methyl-1H-1,2,3-triazol-1-yl)methyl]-1H-imidazo[4,5-c]quinoline-8-carbonitrile, ENT-1]
IC50 [1]: 18.8 nM
IC50 [2]: 15.8 nM

C[C@@H]1C[C@H](n2c(Cn3cccn3)nc3cnc4ccc(C#N)cc4c32)CCO1 [Example 121, 1-[(2R,4R)-2-methyltetrahydro-2H-pyran-4-yl]-2-(1H-pyrazol-1-ylmethyl)-1H-imidazo[4,5-c]quinoline-8-carbonitrile, formate salt]
IC50 [1]: 6.19 nM
IC50 [2]: 5.61 nM

C[C@@H]1C[C@H](n2c(Cn3cccn3)nc3cnc4ccc(Cl)cc4c32)CCO1 [Example 130, 8-chloro-1-[(2R,4R)-2-methyltetrahydro-2H-pyran-4-yl]-2-(1H-pyrazol-1-ylmethyl)-1H-imidazo[4,5-c]quinoline, formate salt]
IC50 [1]: 3.43 nM
IC50 [2]: 3.84 nM

COc1ccc(Cc2nc3cnc4ccc(C#N)cc4c3n2C2CCOC(C)(C)C2)nc1 (single isomer, unassigned; ent-2) [Example 207, 1-(2,2-dimethyltetrahydro-2H-pyran-4-yl)-2-[(5-methoxypyridin-2-yl)methyl]-1H-imidazo[4,5-c]quinoline-8-carbonitrile, ENT-2]
IC50 [1]: 7.53 nM
IC50 [2]: 6.84 nM

Cc1cc(Cc2nc3cnc4ccc(C#N)cc4c3n2C2CCC2)no1 [Example 216, 1-cyclobutyl-2-[(5-methyl-1,2-oxazol-3-yl)methyl]-1H-imidazo[4,5-c]quinoline-8-carbonitrile, formate salt]
IC50 [1]: 26.6 nM
IC50 [2]: 38.6 nM

Cc1nnn(Cc2nc3cnc4ccc(Cl)cc4c3n2[C@@H]2CCO[C@H](C)C2)n1 [Example 206, 8-chloro-1-[(2R,4R)-2-methyltetrahydro-2H-pyran-4-yl]-2-[(5-methyl-2H-tetrazol-2-yl)methyl]-1H-imidazo[4,5-c]quinoline]
IC50 [1]: 10.4 nM
IC50 [2]: 9.57 nM

Cc1cnc(Cc2nc3cnc4ccc(C#N)cc4c3n2C2CCOC(C)(C)C2)cn1 (single isomer, unassigned; ent-1) [Example 215, 1-(2,2-dimethyltetrahydro-2H-pyran-4-yl)-2-[(5-methylpyrazin-2-yl)methyl]-1H-imidazo[4,5-c]quinoline-8-carbonitrile, ENT-1]
IC50 [1]: 13.4 nM
IC50 [2]: 13.9 nM

Cc1cc(Cc2nc3cnc4ccc(C#N)cc4c3n2[C@@H]2CC[C@H](F)C2)no1 (single isomer, unassigned) [Example 97]
IC50 [1]: 5.14 nM
IC50 [2]: 7.79 nM

Cc1cnn(Cc2nc3cnc4ccc(Cl)cc4c3n2[C@@H]2CCO[C@H](C)C2)c1 [Example 212, 8-chloro-2-[(4-methyl-1H-pyrazol-1-yl)methyl]-1-[(2R,4R)-2-methyltetrahydro-2H-pyran-4-yl]-1H-imidazo[4,5-c]quinoline]
IC50 [1]: 8.47 nM
IC50 [2]: 8.15 nM

COc1cnn(Cc2nc3cnc4ccc(F)cc4c3n2[C@@H]2CCO[C@H](C)C2)c1 [Example 179, 8-fluoro-2-[(4-methoxy-1H-pyrazol-1-yl)methyl]-1-[(2R,4R)-2-methyltetrahydro-2H-pyran-4-yl]-1H-imidazo[4,5-c]quinoline]
IC50 [1]: 14 nM
IC50 [2]: 12.6 nM

C[C@@H]1C[C@H](n2c(C(F)c3ccon3)nc3cnc4ccc(Cl)cc4c32)CCO1 (single isomer, unassigned) [Example 237]
IC50 [1]: 4 nM
IC50 [2]: 3.92 nM

Cc1cc(Cc2nc3cnc4ccc(C#N)cc4c3n2CC(F)F)no1 [Example 228, 1-(2,2-difluoroethyl)-2-[(5-methyl-1,2-oxazol-3-yl)methyl]-1H-imidazo[4,5-c]quinoline-8-carbonitrile]
IC50 [1]: 46.7 nM
IC50 [2]: 69.4 nM

C[C@@H]1C[C@H](n2c(Cc3cn4ccccc4n3)nc3cnc4ccc(Cl)cc4c32)CCO1 [Example 167, 8-chloro-2-(imidazo[1,2-a]pyridin-2-ylmethyl)-1-[(2R,4R)-2-methyltetrahydro-2H-pyran-4-yl]-1H-imidazo[4,5-c]quinoline, trifluoroacetate salt]
IC50 [1]: 8.26 nM
IC50 [2]: 8.43 nM
